Laboratory results from US7462600B2, “Macrolides” (Pfizer Inc, priority 2004, dated 2008).
≈ marks a conversion by molar mass, not a printed value. Like-named read-outs stand apart in the source and are kept apart here.

What was measured:
Format in all cases: cell-based
[1] = tested on: Streptococcus pyogenes 1079; assay: MIC, microtiter broth dilution (NCCLS M100-S14), S. pyogenes 1079 (ermB)
Method in brief: (§1)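 Stock solutions of 40 mg/ml in DMSO were used. MIC values came from microtiter-tray broth dilution following NCCLS M100-S14 guidelines.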

[2] = tested on: Streptococcus pneumoniae 1016; assay: MIC, microtiter broth dilution (NCCLS M100-S14), S. pneumoniae 1016 (susceptible)
Method in brief: as §1

[3] = tested on: Streptococcus pneumoniae 1095; conditions: microtiter broth dilution
Method in brief: as §1

[4] = tested on: Streptococcus pneumoniae 1175; conditions: microtiter broth dilution
Method in brief: as §1

[5] = tested on: Haemophilus influenzae 1218; assay: MIC, microtiter broth dilution (NCCLS M100-S14), H. influenzae 1218 (susceptible)
Method in brief: as §1

[6] = S. pneumoniae 1016 (susceptible)
[7] = H. influenzae 1218 (susceptible)

Structure (SMILES) | MIC S. pyogenes 1079 ([1]; Streptococcus pyogenes 1079) [mg/L] | MIC S. pneumo. 1016 ([2]; Streptococcus pneumoniae 1016) [mg/L] | MIC S. pneumo. 1095 ([3]; Streptococcus pneumoniae 1095) [mg/L] | MIC S. pneumo. 1175 ([4]; Streptococcus pneumoniae 1175) [mg/L] | MIC H. influenzae 1218 ([5]; Haemophilus influenzae 1218) [mg/L] | MIC S. pyogenes 1079 ([1]; S. pyogenes 1079 (ermB)) [mg/L] | MIC S. pneumo. 1016 [2, 6] [mg/L] | MIC S. pneumo. 1095 ([3]; S. pneumoniae 1095 (ermB)) [mg/L] | MIC S. pneumo. 1175 ([4]; S. pneumoniae 1175 (mefA)) [mg/L] | MIC H. influenzae 1218 [5, 7] [mg/L]
CCOc1ccc2ccccc2c1CN1CC(N2C(=O)OC3(C)C(CC)OC(=O)C(C)C(=O)C(C)C(OC4OC(C)CC(N(C)C)C4O)C(C)(OC)CC(C)C(=O)C(C)C23)C1 (stereo not shown) [Example 1.97, 3-descladinosyl-11,12-dideoxy-6-O-methyl-3-oxo-12,11-(oxycarbonyl-(1-(2-ethoxynaphthalene-1-methyl)-azetidin-3-yl)-imino)-erythromycin A] | 2 (≈ 2.35 µM) | <0.063 | <0.063 | <0.063 | 0.5 (≈ 0.587 µM) | – | – | – | – | –
CCC1OC(=O)C(C)C(=O)C(C)C(OC2OC(C)CC(N(C)C)C2O)C(C)(OC)CC(C)C(=O)C(C)C2N(C3CN(S(=O)(=O)c4ccc(F)c(C#N)c4)C3)C(=O)OC12C (stereo not shown) [Example 3.77, 3-descladinosyl-11,12-dideoxy-6-O-methyl-3-oxo-12,11-(oxycarbonyl-(1-(3-cyano-4-fluorobenzenesulfonyl)-azetidin-3-yl)-imino)-erythromycin A] | 8 (≈ 9.4 µM) | <0.06 | <0.06 | <0.06 | 1 (≈ 1.18 µM) | – | – | – | – | –
CC[C@H]1OC(=O)[C@H](C)[C@@H](OC(=O)N2CCCC2)[C@H](C)[C@@H](O[C@@H]2O[C@H](C)C[C@H](N(C)C)[C@H]2O)[C@](C)(OC)C[C@@H](C)C(=O)[C@H](C)[C@H]2N(CC3CN(Cc4c[nH]c5ncccc45)C3)C(=O)O[C@]12C [Example 5.10, 3-descladinosyl-11,12-dideoxy-6-O-methyl-12,11-(oxycarbonyl-(1-((1H-pyrrolo[2,3-b]pyridin-3-yl)-methyl)-(azetidin-3-yl)-methyl)-imino)-3-(pyrrolidine-1-carbonyl)-erythromycin A] | 2 (≈ 2.2 µM) | <0.06 | <0.06 | <0.06 | 1 (≈ 1.1 µM) | – | – | – | – | –
CCC1OC(=O)C(C)C(=O)C(C)C(OC2OC(C)CC(N(C)C)C2O)C(C)(OC)CC(C)C(=O)C(C)C2N(C3CN(S(=O)(=O)c4ccc(-n5cccn5)nc4)C3)C(=O)OC12C (stereo not shown) [Example 3.16, 3-descladinosyl-11,12-dideoxy-6-O-methyl-3-oxo-12,11-(oxycarbonyl-(1-(6-(1H-pyrazol-1-yl)pyridine-3-sulfonyl)-azetidin-3-yl)-imino)-erythromycin A] | 1 (≈ 1.14 µM) | <0.06 | <0.06 | <0.06 | 0.5 (≈ 0.571 µM) | – | – | – | – | –
CCC1OC(=O)C(C)C(=O)C(C)C(OC2OC(C)CC(N(C)C)C2O)C(C)(OC)CC(C)C(=O)C(C)C2N(CC3CN(Cc4ccc5ncccc5c4)C3)C(=O)OC12C (stereo not shown) [Example 4.14, 3-descladinosyl-11,12-dideoxy-6-O-methyl-3-oxo-12,11-(oxycarbonyl-(1-((quinolin-6-yl)-methyl)-(azetidin-3-yl)-methyl)-imino)-erythromycin A] | 8 (≈ 9.72 µM) | <0.06 | <0.06 | <0.06 | 0.5 (≈ 0.608 µM) | – | – | – | – | –
CCC1OC(=O)C(C)C(=O)C(C)C(OC2OC(C)CC(N(C)C)C2O)C(C)(OC)CC(C)C(=O)C(C)C2N(C3CN(C(=O)c4cccc(-c5noc(C)n5)c4)C3)C(=O)OC12C (stereo not shown) [Example 2.16, 3-(5-methyl-1,2,4-oxadiazol-3-yl)benzoyl] | >64.00 | <0.06 | 16 (≈ 18.7 µM) | 0.25 (≈ 0.293 µM) | 64 (≈ 74.9 µM) | – | – | – | – | –
CCC1OC(=O)C(C)C(=O)C(C)C(OC2OC(C)CC(N(C)C)C2O)C(C)(OC)CC(C)C(=O)C(C)C2N(C3CN(S(=O)(=O)c4cccc5cccnc45)C3)C(=O)OC12C (stereo not shown) [Example 3.03, 3-descladinosyl-11,12-dideoxy-O-methyl-3-oxo-12,11-(oxycarbonyl-(1-(quinoline-8-sulfonyl)-azetidin-3-yl)-imino)-erythromycin A] | 1 (≈ 1.16 µM) | <0.06 | <0.06 | <0.06 | 0.12 (≈ 0.14 µM) | – | – | – | – | –
CCC1OC(=O)C(C)C(=O)C(C)C(OC2OC(C)CC(N(C)C)C2O)C(C)(OC)CC(C)C(=O)C(C)C2N(C3CN(Cc4cccc5nc[nH]c45)C3)C(=O)OC12C (stereo not shown) [Example 1.11, 3-descladinosyl-11,12-dideoxy-6-O-methyl-3-oxo-12,11-(oxycarbonyl-(1-((1H-benzoimidazol-7-yl)-methy)-azetidin-3-yl)-imino)-erythromycin A] | 4 (≈ 5.01 µM) | <0.06 | <0.06 | 0.5 (≈ 0.627 µM) | <0.06 | – | – | – | – | –
CCC1OC(=O)C(C)C(=O)C(C)C(OC2OC(C)CC(N(C)C)C2O)C(C)(OC)CC(C)C(=O)C(C)C2N(C3CN(S(=O)(=O)c4ccc(Oc5ccncc5)cc4)C3)C(=O)OC12C (stereo not shown) [Example 3.26] | 64 (≈ 71 µM) | <0.06 | <0.06 | 8 (≈ 8.88 µM) | 4 (≈ 4.44 µM) | – | – | – | – | –
CCC1OC(=O)C(C)C(=O)C(C)C(OC2OC(C)CC(N(C)C)C2O)C(C)(OC)CC(C)C(=O)C(C)C2N(C3CN(S(=O)(=O)c4ccc5cnsc5c4)C3)C(=O)OC12C (stereo not shown) [Example 3.104, 3-descladinosyl-11,12-dideoxy-6-O-methyl-3-oxo-12,11-(oxycarbonyl-(1-(benzo[d]isothiazole-6-sulfonyl)-azetidin-3-yl)-imino)-erythromycin A] | 1 (≈ 1.16 µM) | <0.063 | <0.063 | <0.063 | <0.063 | – | – | – | – | –
CC[C@H]1OC(=O)[C@H](C)C(=O)[C@H](C)[C@@H](O[C@@H]2O[C@H](C)C[C@H](N(C)C)[C@H]2O)[C@](C)(OC)C[C@@H](C)C(=O)[C@H](C)[C@H]2N(C3CCN(Cc4cccc5[nH]cnc45)C3)C(=O)O[C@]12C.O=CO (stereo partly shown) [Example 8.01, (1H-benzo[d]imidazo-4-yl)methyl] | – | – | – | – | – | >64.00 | <0.06 | >64.00 | 0.25 | 8
CCC1OC(=O)C(C)C(=O)C(C)C(OC2OC(C)CC(N(C)C)C2O)C(C)(OC)CC(C)C(=O)C(C)C2N(CC3CN(C(=O)c4cnc5ccccc5c4)C3)C(=O)OC12C.O=CO (stereo not shown) [4.38] | >64.00 | <0.06 | 2 | <0.06 | 2 | – | – | – | – | –
CCC1OC(=O)C(C)C(=O)C(C)C(OC2OC(C)CC(N(C)C)C2O)C(C)(OC)CC(C)C(=O)C(C)C2N(CC3CCN(Cc4c[nH]c5ncccc45)C3)C(=O)OC12C (stereo not shown) [13.01] | – | – | – | – | – | >64.00 | <0.06 | 0.25 (≈ 0.303 µM) | 1 (≈ 1.21 µM) | 1 (≈ 1.21 µM)
CCC1OC(=O)C(C)C(=O)C(C)C(OC2OC(C)CC(N(C)C)C2O)C(C)(OC)CC(C)C(=O)C(C)C2N(C3CN(S(=O)(=O)c4ccc(-c5csnn5)cc4)C3)C(=O)OC12C (stereo not shown) [Example 3.45, 3-descladinosyl-11,12-dideoxy-6-O-methyl-3-oxo-12,11-(oxycarbonyl-(1-(4-(1,2,3-thiadiazol-4-yl)benzenesulfonyl)-azetidin-3-yl)-imino)-erythromycin A] | 0.12 (≈ 0.135 µM) | <0.06 | <0.06 | <0.06 | 0.25 (≈ 0.28 µM) | – | – | – | – | –
CCOc1ccc(S(=O)(=O)N2CC(N3C(=O)OC4(C)C(CC)OC(=O)C(C)C(=O)C(C)C(OC5OC(C)CC(N(C)C)C5O)C(C)(OC)CC(C)C(=O)C(C)C34)C2)cc1OC (stereo not shown) [Example 3.105, 3-descladinosyl-11,12-dideoxy-6-O-methyl-3-oxo-12,11-(oxycarbonyl-(1-(4-ethoxy-3-methoxybenzene-1-sulfonyl)-azetidin-3-yl)-imino)-erythromycin A] | 1 (≈ 1.13 µM) | <0.063 | <0.063 | <0.063 | 0.25 (≈ 0.283 µM) | – | – | – | – | –
CCC1OC(=O)C(C)C(=O)C(C)C(OC2OC(C)CC(N(C)C)C2O)C(C)(OC)CC(C)C(=O)C(C)C2N(C3CN(Cc4ccnc5nccnc45)C3)C(=O)OC12C (stereo not shown) [Example 1.24, 3-descladinosyl-11,12-dideoxy-6-O-methyl-3-oxo-12,11-(oxycarbonyl-(1-((pyrido[2,3-b]pyrazin-4-yl)-methy)-azetidin-3-yl)-imino)-erythromycin A] | 4 (≈ 4.93 µM) | <0.06 | <0.06 | 0.25 (≈ 0.308 µM) | 1 (≈ 1.23 µM) | – | – | – | – | –
CCC1OC(=O)C(C)C(=O)C(C)C(OC2OC(C)CC(N(C)C)C2O)C(C)(OC)CC(C)C(=O)C(C)C2N(CC3CCCN3C(=O)c3cc4cccnc4[nH]3)C(=O)OC12C (stereo not shown) [10.55] | – | – | – | – | – | 32 (≈ 38.1 µM) | <0.06 | <0.06 | <0.06 | 1 (≈ 1.19 µM)
